What was measured:
A431 cells = experiment: A431 Cell Growth Inhibition Test (MTT Assay); type: cell-based, human; details: Homo sapiens; for inhibition at 1 µM: A-431, 68 h, compound 1 μM, 68 h incubation, read-out: Growth Inhibition Ratio (%); for IC50: A-431, 68 h incubation
Description: A431 Cell Growth Inhibition Test (MTT Assay)
1. Cell strains: A431 (human epithelial […] cell strains);
Culture medium: 45% DMEM, 45% F12+10% FBS;
(§1) 1. A plate (10 cm) of cells in logarithmic growth phase normally cultured was collected;
(§2) 2. The culture solution was sucked out. The plate was washed with 5 ml of PBS 1-2 times;
3. PBS was sucked out, and 2 ml of 0.25% pancreatin was added to infiltrate the cells for 1 min;
4. The pancreatin was sucked out, and the culture plate was placed in an incubator. Digestion was carried out for about 15 min at 37° C.;
(§3) 5. 4 ml of complete culture solution was added in the culture plate to stop the digestion. The cells were carefully scoured with micropipette (1 ml) to give a uniform cell suspension. The suspension was implanted into a 96-well cell culture plate by 2500 cells/100 μl per well. The culture plate was incubated overnight under 5% CO2 at 37° C. In day 2, 100 μl of culture solution comprising the compound was added in each well, and further incubated for 68 h under 5% CO2 at 37° C.
(§4) 6. The culture solution was sucked out;
7. 100 μl of serum-free culture solution containing 0.5 mg/ml MTT was added in each well, and incubated for 4 h;
(§5) 8. The culture solution was carefully sucked out;
9. 100 μl of DMSO was added into each well and vibrated to dissolve;
(§6) 10. OD values were determined at 490 nM.
(§7) 1. Calculation of Relative Inhibition Ratio The inhibition ratio of a compound on cell growth=(PC−n)/(PC−NC)×100%
IC50: concentration of a compound where inhibition ratio was 50%. IC50 values were fitted with Origin7.5.

BT-474 cells = experiment: BT-474 Cell Growth Inhibition Test (SRB Assay); type: cell-based, human; details: Homo sapiens, 70 h incubation; for inhibition at 1 µM: BT-474, 70 h, compound 1 μM, read-out: Growth Inhibition Ratio (%)
Description: BT-474 Cell Growth Inhibition Test (SRB Assay)
1. Cell strains: BT-474 (human breast tumor cell strains);
2. SRB: available from Sigmaaldrich, goods number: S9012, lot number: 047K3751. SRB was reserved at the room temperature. 0.4% (w/v) of working solution was formulated with 1% of glacial acetic acid. The solution was reserved at the temperature of 4° C.; anti-tumor compounds; DMSO.
Culture medium (90% EMEM+10% FBS+0.1 mM NEAA, reserved at 4° C.);
(§8) 1. A plate (10 cm) of cells in logarithmic growth phase normally cultured was collected. The culture solution was sucked out. The plate was washed with 5 mL of PBS 1-2 times;
2. PBS was sucked out, and […] of 0.25% pancreatin was added to infiltrate the cells for 30 s;
3. The pancreatin was sucked out. The culture plate was pleaced in an incubator. Digestion was carried out for about 5 min at 37° C.;
4. 3 mL of complete culture solution was added to the culture plate to stop the digestion. The cells were carefully scoured with micropipette (1 ml) to give a uniform single cell suspension;
5. Cell suspension was counted. The suspension was diluted to 1×10^5/ml. The resulting suspension was developed uniformly on a plate. The plate was incubated under 5% CO2 at 37° C. overnight. In day 2, 80 μL of complete culture medium was added in each well and then 20 μL of culture solution comprising a compound was added. The mixture was incubated for 70 h under 5% CO2 at 37° C.
(§9) 6. The culture solution was sucked out. 100 uL of TCA fixed cells which were diluted to 10% were added to each well. The plate was kept in a refrigerator for 1 h at 4° C.
(§10) 7. TCA stationary liquid was sucked out. Each well was washed with 150 μL of ddH2O five times;
(§11) 8. After the stationary liquid was cleansed, the plate was dried in the air at the room temperature;
(§12) 9. 60 μL of SRB staining solution was added in each well. The well was stained for 15 min at the room temperature;
(§13) 10. The SRB staining solution was sucked out. Each well was washed with 150 μL of 1% glacial acetic acid five times;
(§14) 11. After the SRB staining solution was cleansed, the plate was dried in the air at the room temperature;
(§15) 12. 100 μL of 10 mM Tris was added in each well. The plate was vibrated to dissolve out SRB;
(§16) 13. OD values were determined at 570 nM.
as §7
(§17) IC50: Concentration of a compound where inhibition ratio was 50%. IC50 values were fitted with Origin7.5.

NCI-N87 cells = experiment: NCI-N87 Cell Growth Inhibition Test (MTT Assay); type: cell-based; details: Homo sapiens, 72 h incubation
Description: NCI-N87 Cell Growth Inhibition Test (MTT Assay)
1. Cell strains: NCI-N87 (human gastric carcinoma cell strains);
as §1
2. The culture solution was sucked out. The plate was washed wtih 5 ml of PBS 1-2 times;
(§18) 3. PBS was sucked out. 1.5 ml of 0.25% pancreatin was added to infiltrate the cells for 1 min;
4. The pancreatin was sucked out. The culture plate was placed in an incubator. Digestion was carried out for about 12 min at 37° C.;
(§19) 5. 4.5 ml of complete culture solution was added to the culture plate to stop the digestion. The cells were carefully scoured with micropipette (1 ml) to give a uniform cell suspension. The suspension was implanted into a 96-well cell culture disc by 17000 cells/100 μl per well. The culture plate was incubated overnight under 5% CO2 at 37° C. In day 2, 100 μl of culture solution comprising a compound was added in each well, and further incubated for 72 h under 5% CO2 at 37° C.
as §4
(§20) 7. 100 μl of serum-free culture solution containing 0.5 mg/ml MTT was added in each well, and incubated for 3 h;
as §5
(§21) 9. 100 μl of DMSO was added in each welland vibrated to dissolve;
as §6
1. Calculation of Rrelative Inhibition Ratio The inhibition ratio of a compound on cell growth=(PC−n)/(PC−NC)×100%
as §17

Sk-Br-3 cells = experiment: Sk-Br-3 Cell Growth Inhibition Test (SRB Assay); type: cell-based; details: Homo sapiens, 91 h incubation
Description: Sk-Br-3 Cell Growth Inhibition Test (SRB Assay)
1. Cell strains: Sk-Br-3 (human breast cancer cell strains);
2. SRB: available from Sigmaaldrich, goods number: S9012, lot number: 047K3751. SRB was reserved at the room temperature. 0.4% (w/v) of working solution was formulated with 1% of glacial acetic acid. The solution was reserved at 4° C.; anti-tumor compounds; DMSO
Culture medium: 90% DMEM+10% FBS;
as §8
2. PBS was sucked out. […] of 0.25% pancreatin was added to infiltrate the cells for 30 s;
3. The pancreatin was sucked out. The culture plate was placed in an incubator. Digestion was carried out for about 1.5-2 min at 37° C.;
4. 4 mL of complete culture solution was added to the culture plate to stop the digestion. The cells were carefully scoured with micropipette (1 ml) to give a uniform single cell suspension;
5. Cell suspension was counted. The suspension was diluted to 1×10^5/ml. The resulting suspension was developed uniformly on a plate by 10000 cells/100 μl per well. The culture plate was incubated overnight under 5% CO2 at 37° C. In day 2, 100 μl of culture solution comprising a compound was added in each well, and further incubated for 91 h under 5% CO2 at 37° C.
as §9, §10, §11, §12, §13, §14, §15, §16
To: OD values of the starting content of cells when the cells were developed on a plate;
PC: OD values of cells after normal growth in control wells without a compound;
Ti: OD values of cells after growth in test wells with a compound;
NC: Background OD values of blank well without a compound and cells
Therefore: Ratio of cells in test wells to normal wells (% of control cell growth)=(Ti−To)/(PC−To)×100%
Ratio GI50 was concentration of a compound at the point of 50%.
Therefore: Ratio of killed cells to inoculated cells (% of killed cells)=(Ti−To)/(To−NC)×100%
LC50 was concentration point of a compound when half of the starting inoculated concentration was reached.
Concentration of a compound at this point is defined as TGI (total growth inhibition).

Fadu cells = experiment: Fadu Cell Growth Inhibition Test (MTT Assay); type: cell-based; details: Homo sapiens, 72 h incubation
Description: Fadu Cell Growth Inhibition Test (MTT Assay)
Cell strains: Fudu (human head and neck cancer cell strains);
Culture medium: 90% EMEM+10% FBS;
as §1, §2, §18
4. The pancreatin was sucked out. The culture plate was placed in an incubator. Digestion was carried out for about 5 min at 37° C.;
as §19, with “plate” for “disc”, “6000” for “17000”
as §4, §20, §5, §21, §6, §7, §17

A549 cells = experiment: A549 Cell Growth Inhibition Test (MTT Assay); type: cell-based; details: Homo sapiens, 72 h incubation
Description: A549 Cell Growth Inhibition Test (MTT Assay)
1. Cell strains: […] (human lung caner cell strains);
Culture medium: 90% F12K+10% FBS;
as §1
2. The culture solution was sucked out. Tthe plate was washed with 5 ml of PBS 1-2 times;
(§22) 3. PBS was sucked out. 2 ml of 0.25% pancreatin was added to infiltrate the cells for 1 min;
(§23) 4. The pancreatin was sucked out. The culture plate was placed in an incubator. Digestion was carried out for about 2 min at 37° C.;
as §3, with “was added to the culture” for “was added in the culture”, “solution comprising a compound was” for “solution comprising the compound was”, “incubated for 72 h under” for “incubated for 68 h under”
as §4, §20, §5
(§24) 9. 100 μl of DMSO was added in each well and vibrated to dissolve;
as §6, §7, §17

NCI-H460 cells = experiment: NCI-H460 Cell Growth Inhibition Test (MTT Assay); type: cell-based; details: Homo sapiens, 72 h incubation
Description: NCI-H460 Cell Growth Inhibition Test (MTT Assay)
1. Cell strains: NCI-H460 (human large cell lung cancer cell strains);
as §1, §2, §22, §23
as §3, with “was added to the culture” for “was added in the culture”, “solution comprising a compound was” for “solution comprising the compound was”, “incubated for 72 h under” for “incubated for 68 h under”
as §4, §20, §5, §24, §6, §7, §17

Row | Structure (SMILES) | inhibition at 1 µM (A431 cells) | inhibition at 1 µM (BT-474 cells) | also measured
1 | C#Cc1cccc(Nc2c(C#N)cnc3cc(OC4CCOC4)c(NC(=O)/C=C/CN(C)C)cc23)c1 (mixture of isomers) [Example 177, (E/Z)-N-(3-CYANO-4-(3-ETHYNYLPHENYLAMINO)-7-(TETRAHYDROFURAN-3-YL-OXY)QUINOLIN-6-YL)-4-(DIMETHYLAMINO)-BUT-2-ENAMIDE] | 81% | 87% | 
2 | CN(C)C/C=C/C(=O)Nc1cc2c(Nc3ccc(OCc4cccc(F)c4)c(Cl)c3)c(C#N)cnc2cc1OC1CCOC1 (mixture of isomers) [Example 180, (E/Z)-N-(4-(4-(3-FLUOROBENZYLOXY)-3-CHLOROPHENYLAMINO)-3-CYANO-7-(TETRAHYDROFURAN-3-YL-OXY)QUINOLIN-6-YL)-4-(DIMETHYLAMINO)-BUT-2-ENAMIDE] | 73% | 78% | 
3 | N#Cc1cnc2cc(O[C@H]3CCOC3)c(NC(=O)/C=C/CNCCCCCCO)cc2c1Nc1ccc(OCc2ccccn2)c(Cl)c1 [Example 154, (S,E)-N-(4-(3-CHLORO-4-(PYRIDIN-2-YL-METHOXY)PHENYLAMINO)-3-CYANO-7-(TETRAHYDROFURAN-3-YL-OXY)QUINOLIN-6-YL)-4-(6-HYDROXYHEXYLAMINO)-BUT-2-ENAMIDE] |  |  | IC50 (A431 cells): 0.162 µM; IC50 (BT-474 cells): 0.012 µM; IC50 (NCI-N87 cells): 0.041 µM; GI50 (Sk-Br-3 cells): 0.038 µM; IC50 (Fadu cells): 0.324 µM
4 | Cc1ccccc1COc1ccc(Nc2c(C#N)cnc3cc(O[C@H]4CCOC4)c(NC(=O)/C=C/CN(C)C)cc23)cc1Cl [Example 166, (S,E)-N-(4-(4-(2-METHYLBENZYLOXY)-3-CHLOROPHENYLAMINO)-3-CYANO-7-(TETRAHYDROFURAN-3-YL-OXY)QUINOLIN-6-YL)-4-(DIMETHYLAMINO)-BUT-2-ENAMIDE] | 69% | 69% | 
5 | Cc1ccc(COc2ccc(Nc3c(C#N)cnc4cc(O[C@H]5CCOC5)c(NC(=O)/C=C/CN(C)C)cc34)cc2Cl)cc1 [Example 167, (S,E)-N-(4-(4-(4-METHYLBENZYLOXY)-3-CHLOROPHENYLAMINO)-3-CYANO-7-(TETRAHYDROFURAN-3-YL-OXY)QUINOLIN-6-YL)-4-(DIMETHYLAMINO)-BUT-2-ENAMIDE] | 75% | 75% | 
6 | CN(C)C/C=C/C(=O)Nc1cc2c(Nc3ccc(F)c(Cl)c3)c(C#N)cnc2cc1Oc1cccnc1 [Example 174, (E)-N-(4-(3-CHLORO-4-FLUOROPHENYLAMINO)-3-CYANO-7-(PYRIDIN-3-YL-OXY)QUINOLIN-6-YL)4-(DIMETHYLAMINO)-BUT-2-ENAMIDE] |  |  | IC50 (A431 cells): 0.95 µM; IC50 (A549 cells): 3.7 µM; IC50 (NCI-H460 cells): 3 µM
7 | C#Cc1cccc(Nc2c(C#N)cnc3cc(O[C@H]4CCOC4)c(NC(=O)/C=C/CN(C)CCO)cc23)c1 [Example 190, (S,E)-N-(3-CYANO-4-(3-ETHYNYLPHENYLAMINO)-7-(TETRAHYDROFURAN-3-YL-OXY)QUINOLIN-6-YL)-4-(N-METHYLETHANOLAMINO)-BUT-2-ENAMIDE] | 79% |  | IC50 (BT-474 cells): 0.267 µM

Reference: patent publication US9187458B2, “Cyanoquinoline derivatives” (Tianjin Hemay Bio-Tech Co., LTD., priority 2010, dated 2015)
